In patent US6777402B2, “Water-soluble porphyrin derivatives for photodynamic therapy, their use and manufacture” (CeramOptec Industries, Inc., priority 2001, dated 2004):
≈ marks a conversion by molar mass, not a printed value.

Key:
physchem = settings: water
[1] = Water solubility of salts with hydrophilic amines; settings: as salts with hydrophilic amines

| Compound | solubility (physchem) [µg/mL] | water solubility compared with the respective chlorin e6 salts [1] |
| --- | --- | --- |
| C=Cc1c(C)c2cc3nc(c(CC(=O)O)c4[nH]c(cc5nc(cc1[nH]2)C(C)=C5CC)c(C)c4C(=O)O)[C@@H](CCC(=O)O)[C@@H]3C [(7), chlorin e6] | > 5000 |  |
| pheophorbide a [(4)] |  | remarkably lower water solubility |
| CCC1=C(C)c2cc3[nH]c(cc4nc(c5c6[nH]c(cc1n2)c(C)c6C(=O)C5)[C@@H](CCC(=O)O)[C@@H]4C)c(C)c3CC [(36), mesopyropheophorbide a] | 40 (≈ 74.5 µM) |  |
| C=Cc1c(C)c2cc3nc(c4c5[nH]c(cc6nc(cc1[nH]2)C(C)=C6CC)c(C)c5C(=O)OC4=O)[C@@H](CCC(=O)O)[C@@H]3C [(8), purpurin 18] |  | remarkably lower water solubility |
| C=Cc1c(C)c2cc3nc(c(C(=O)O)c4[nH]c(cc5nc(cc1[nH]2)C(C)=C5CC)c(C)c4C(=O)O)[C@@H](CCC(=O)O)[C@@H]3C [(9), chlorin p6] |  | remarkably lower water solubility |
